How the values were obtained:
Type in all cases: cell-based, human
[1] = system: C8161 cells; experiment: MICS (Membrane Invasion Culture System) invasion assay; conditions: C8161, ALK 4/5/7 inhibitor
Protocol: (A) Invasion of C8161 cells following culture on unconditioned Matrigel (Control) or Matrigel preconditioned by either H1 or HSF-6 hESCs was calculated as a percentage of cells able to invade through a defined matrix (collagen IV, laminin, and gelatin)-coated membrane during a 24 hour period using the MICS (Membrane Invasion Culture System) assay. Bars represent the mean, normalized, invasion indices±standard deviations. […] (B) In vivo tumor formation in a mouse injected with C8161 cells pre-exposed for 3 days to either a control matrix (Matrigel) or a matrix conditioned by hESCs (H9 CMTX) (n=21).
The aggressiveness of tumor cells is correlated with their ability to invade through the extracellular matrix; thus, the effect of hESC microenvironments on melanoma cell invasion was investigated.
The derivation and phenotypic characteristics of the human melanoma cell lines have been previously described. Seftor, et. al., 2002, Clin. Experim. Metastas. 19:233-246; Seftor, et. al., 2005 Cancer Res. 65:10164-10169. […] The cultures are determined to be free of mycoplasma contamination using a PCR-based assay (Roche). […]

[2] = system: Notch; experiment: Western blot analysis of Notch 1, 2 and 4 in C8161 cells; conditions: C8161 treated with Nodal inhibitor
Text: Western blot analysis of C8161 cells 72 hrs following the administration of siRNA. […] Western blot analysis of Notch 1, 2 and 4 in C8161 cells treated with the Nodal inhibitor SB431542.

[3] = system: C8161 cells; experiment: Vasculogenic mimicry and plasticity biomarkers in C8161 cells with ALK 4/5/7 inhibitor; conditions: C8161, ALK 4/5/7 inhibitor
Protocol: (A) Western blot analyses of Nodal, phosphorylated SMAD-2, total SMAD 2/3, and Actin in C8161 cells 48 hours after administration of either vehicle or an ALK 4/5/7 inhibitor (SB431542, 1 μM, 10 μM). […] (B) Western blot analyses of Nodal, Tyrosinase and Actin in C8161 cells 24 hours after the administration of either vehicle or different concentrations of ALK inhibitor while (C) is a Western analyses for VE-Cadherin, Keratin 18 and Actin in C8161 cells cultured on 3-D collagen I matrices for 6 days in the presence of vehicle or different concentrations of ALK inhibitor.

[4] = system: Nodal; experiment: Nodal expression in C8161 cells (Western blot, real time RT-PCR); conditions: C8161, ALK 4/5/7 inhibitor 1 μM, 10 μM
Protocol: A determination of the effects of H9 CMTX on Nodal expression in metastatic melanoma (C8161) and breast carcinoma (MDA-MB-231) cells was undertaken. […] Exposure to H9 CMTX similarly abrogates Nodal mRNA expression in the melanoma and breast carcinoma cells (FIG. 9C).
Protein lysates were prepared and quantified as previously described in Hess et al., 2001, Cancer Res. 61:3250-3255. Equal amounts of protein were separated by SDS-polyacrylamide gel electrophoresis under reducing conditions, and the resolved proteins were transferred onto Immobilon-P membranes (Millipore Corp., Bedford, Mass.). Membranes were blocked in 1% TBS, 0.1% Tween 20 (TBS-T) and 5% dry milk powder or 3% gelatin (for Nodal Westerns). Blots were incubated with anti-Nodal or anti-Lefty antibodies (Polyclonal rabbit anti-Nodal (H-110) 1:500 Santa Cruz Biotechnology, Santa Cruz, Calif.; Polyclonal goat anti-Lefty 1:500 R&D Systems, Minneapolis, Minn.), washed in TBS-T, and incubated with the appropriate horseradish peroxidase-labeled secondary antibody. Secondary antibodies were detected by enhanced chemiluminescence (Super Signal; Pierce, Rockford, Ill.) and exposure to autoradiography film (Molecular Technologies, St Louis, Mo.). Nodal protein was detected as two major bands at ˜48 and ˜35 kDa representing precursor and pro-Nodal respectively. Nodal often appeared as multiple bands, likely due to degradation of protein modifications. All experiments were done at least three times.
The derivation and phenotypic characteristics of the human melanoma cell lines have been previously described. Seftor, et. al., 2002, Clin. Experim. Metastas. 19:233-246; Seftor, et. al., 2005 Cancer Res. 65:10164-10169. The melanoma cell lines are maintained in RPMI 1640 medium (Invitrogen) supplemented with 10% fetal bovine serum (FBS, Gemini Bioproducts) and 0.1% gentamycin sulfate with the exception of C81-61 cells which are maintained in Ham's FIO medium supplemented with 15% FBS, 1X Mito+ (BD Bioscience) and gentamycin sulfate. […] The cultures are determined to be free of mycoplasma contamination using a PCR-based assay (Roche). […]

For NC(=O)c1ccc(-c2nc(-c3ccc4c(c3)OCO4)c(-c3ccccn3)[nH]2)cc1 [SB431542], the invasive ability [1] was “reduction in invasive ability”, the “Notch expression (Western blot)” value [2] was “relatively unaffected” and the “expression of vasculogenic mimicry plasticity biomarkers (Western blot)” value [3] was “reduction”. For the same molecule, the vasculogenic mimicry [3] was “abrogation of vasculogenic mimicry” and the “Nodal expression (Western blot)” value [4] was “down-regulation of Nodal”.
